Test results from US20030148970A1, “Methods for specifically inhibiting histone deacetylase-4” (priority 2001, published 2003).
d = 2'-deoxy (DNA); m = 2'-O-methyl

Assays:
Human A549 cells = experiment: cDNA array analysis of gene transcription; type: cell-based; details: A549, 50 nM, two days
Source text: Fold change on transcriptions was compared to that of HDAC-4 mismatch oligo (MM2) treated cells;

human HDAC-4 protein = experiment: Western blot of HDAC-4 protein in A549 cells; type: cell-based; details: 50 nM, 48 hours
Procedure: Human cancer A549 cells were treated with AS1, AS2 or MM2 oligos for 48 hours. Whole cell lysates were analyzed by Western blotting using antibodies specific against human HDAC4.
OSDN treatment conditions were as previously described.
Cells were lysed in buffer containing 1% Triton X-100, 0.5% sodium deoxycholate, 5 mM EDTA, 25 mM Tris-HCl, pH 7.5, plus protease inhibitors. Total protein was quantified by the protein assay reagent from Bio-Rad (Hercules, Calif.). 100 ug of total protein was analyzed by SDS-PAGE. Next, total protein was transferred onto a PVDF membrane and probed with various HDAC-specific primary antibodies. Rabbit anti-HDAC-1 (H-51), anti-HDAC-2 (H-54) antibodies (Santa Cruz Biotechnologies, Santa Cruz, Calif.) were used at 1:500 dilution. Rabbit anti-HDAC-3 antibody (Sigma, St. Louis, Mo.) was used at a dilution of 1:1000. Anti-HDAC-4 antibody was prepared as previously described (Wang, S. H. et al., (1999) Mol. Cell. Biol. 19:7816-27), and was used at a dilution of 1:1000. Anti-HDAC-6 antibody was raised by immunizing rabbits with a GST fusion protein containing a fragment of HDAC-6 protein (amino acid #990 to #1216, GenBank Accession No. AAD29048). Rabbit antiserum was tested and found only to react specifically to the human HDAC-6 isoform. HDAC-6 antiserum was used at 1:500 dilution in Western blots to detect HDAC-6 in total cell lysates. […]

HDAC-4 mRNA = experiment: Northern blot of HDAC-4 mRNA in A549 cells; type: cell-based, human; details: escalating doses (50 nM or 100 nM), 24 hours
Procedure: Human cancer A549 cells were treated with escalating doses of AS1, AS2 or MM2 oligos for 24 hours. Total RNAs were harvested for Northern analysis.
Briefly, human A549 and/or T24 human bladder carcinoma cells were seeded in 10 cm tissue culture dishes one day prior to oligonucleotide treatment. The cell lines were obtained from the American Type Culture Collection (ATCC) (Manassas, Va.) and were grown under the recommended culture conditions. Before the addition of the oligonucleotides, cells were washed with PBS (phosphate buffered saline). Next, lipofectin transfection reagent (GIBCO BRL Mississauga, Ontario, Calif.), at a concentration of 6.25 μg/ml, was added to serum free OPTIMEM medium (GIBCO BRL, Rockville, Md.), which was then added to the cells. The oligonucleotides to be screened were then added directly to the cells (i.e., one oligonucleotide per plate of cells). Mismatched oligonucleotides were used as controls. The same concentration of oligonucleotide (e.g., 50 nM) was used per plate of cells for each oligonucleotide tested.
Cells were harvested, and total RNAs were analyzed by Northern blot analysis. Briefly, total RNA was extracted using RNeasy miniprep columns (QIAGEN). Ten to twenty μg of total RNA was run on a formaldehyde-containing 1% agarose gel with 0.5 M sodium phosphate (pH 7.0) as the buffer system. […]

human HDAC-6 = biological target: T1, human HDAC-6 (Homo sapiens, UniProt Q9UBN7); experiment: histone deacetylase enzyme assay, HDAC-6; type: biochemical
T1 construct: made in house; host or cells: insect cells (baculovirus expression system)
T1 sequence (Q9UBN7 1-1215): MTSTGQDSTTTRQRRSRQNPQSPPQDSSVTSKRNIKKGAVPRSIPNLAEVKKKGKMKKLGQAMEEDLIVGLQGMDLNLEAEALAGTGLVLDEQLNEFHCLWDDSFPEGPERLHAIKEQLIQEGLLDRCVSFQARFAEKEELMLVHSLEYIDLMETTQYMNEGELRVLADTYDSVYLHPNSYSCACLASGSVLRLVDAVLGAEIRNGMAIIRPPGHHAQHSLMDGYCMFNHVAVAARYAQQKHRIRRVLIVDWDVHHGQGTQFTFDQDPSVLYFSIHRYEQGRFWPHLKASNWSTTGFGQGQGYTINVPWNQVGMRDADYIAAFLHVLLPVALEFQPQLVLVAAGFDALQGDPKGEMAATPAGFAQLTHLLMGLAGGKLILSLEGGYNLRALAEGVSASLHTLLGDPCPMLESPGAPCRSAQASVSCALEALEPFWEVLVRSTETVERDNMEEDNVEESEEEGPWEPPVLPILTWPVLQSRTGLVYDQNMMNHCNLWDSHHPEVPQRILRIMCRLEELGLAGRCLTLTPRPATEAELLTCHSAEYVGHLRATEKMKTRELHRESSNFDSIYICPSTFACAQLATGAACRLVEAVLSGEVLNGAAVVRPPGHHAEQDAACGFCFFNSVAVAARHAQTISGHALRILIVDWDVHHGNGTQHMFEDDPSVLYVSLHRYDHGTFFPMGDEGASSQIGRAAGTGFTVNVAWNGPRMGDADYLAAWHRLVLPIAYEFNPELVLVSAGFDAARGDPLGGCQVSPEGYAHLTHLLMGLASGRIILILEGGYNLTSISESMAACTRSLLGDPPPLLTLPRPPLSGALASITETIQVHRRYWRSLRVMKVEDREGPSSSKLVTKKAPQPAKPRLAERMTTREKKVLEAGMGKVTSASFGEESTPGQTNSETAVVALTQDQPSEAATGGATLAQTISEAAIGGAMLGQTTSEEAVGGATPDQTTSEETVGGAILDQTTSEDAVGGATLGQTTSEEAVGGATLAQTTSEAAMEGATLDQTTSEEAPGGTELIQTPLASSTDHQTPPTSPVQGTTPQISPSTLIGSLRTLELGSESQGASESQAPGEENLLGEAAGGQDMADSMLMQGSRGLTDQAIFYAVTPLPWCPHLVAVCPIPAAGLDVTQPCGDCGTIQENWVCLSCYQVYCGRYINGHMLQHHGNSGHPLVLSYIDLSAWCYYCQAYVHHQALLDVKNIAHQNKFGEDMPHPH
Procedure: (§1) The other HDAC isotypes, HDAC-3 and HDAC-4, were purified directly on an anti-Flag affinity column.
(§2) For the deacetylase assay, 20,000 cpm of an [^3H]-metabolically-labeled acetylated histone was used as a substrate. Histones were incubated with cloned recombinant human HDAC enzymes at 37° C. […] All assay conditions were pre-determined to be certain that each reaction was linear. Reactions were stopped by adding acetic acid (0.04 M final concentration) and HCl (250 mM, final concentration). The mixture was extracted with ethyl acetate, and the released [3H]-acetic acid was quantified by liquid scintillation counting. For the inhibition studies, HDAC enzyme was preincubated with test compounds for 30 minutes at 4° C. prior to the start of the enzymatic assay. IC50 values for HDAC enzyme inhibitors were identified with dose response curves for each individual compound and, thereby, obtaining a value for the concentration of inhibitor that produced fifty percent of the maximal inhibition.

[1] = test system: human colon cancer HCT116 cells; experiment: MTT assay of cell proliferation and cytotoxicity; type: cell-based; details: HCT-116, 48 hours
Procedure: Four thousand five hundred (4,500) human colon cancer HCT116 cells (ATCC, Manassas, Va. were used in an MTT (3-[4,5-dimethylthiazol-2-yl]-2,5 diphenyl tetrazolium bromide) assay to quantitatively determine cell proliferation and cytotoxicity. Typically, HCT116 cells were plated into each well of the 96-well tissue culture plate and left overnight to attach to the plate. Compounds at various concentrations (1 uM, 5 uM and 25 uM, in DMSO) were added in triplicate into the culture media (final DMSO concentration 1%) and incubated for 48 hours. MTT solution (obtained from Sigma as powder) was added and incubated with the cells for 4 hours at 37° C. in incubator with 5% CO2. During the incubation, viable cells convert MTT to a water-insoluble formazan dye. Solubilizing buffer (50% N,N-dimethylformamide, 20% SDS, pH 4.7) was added to cells and incubate for overnight at 37C in incubator with 5% CO2. Solubilized dye was quantitated by colorimetric reading at […] using a reference of […].

p21 = p21 induction by small molecules; type: cell-based
HDAC 2 = HDAC 2 (Homo sapiens, UniProt Q92769); experiment: histone deacetylase enzyme assay, HDAC 2; type: biochemical
Chain of HDAC 2 (Q92769 whole entry): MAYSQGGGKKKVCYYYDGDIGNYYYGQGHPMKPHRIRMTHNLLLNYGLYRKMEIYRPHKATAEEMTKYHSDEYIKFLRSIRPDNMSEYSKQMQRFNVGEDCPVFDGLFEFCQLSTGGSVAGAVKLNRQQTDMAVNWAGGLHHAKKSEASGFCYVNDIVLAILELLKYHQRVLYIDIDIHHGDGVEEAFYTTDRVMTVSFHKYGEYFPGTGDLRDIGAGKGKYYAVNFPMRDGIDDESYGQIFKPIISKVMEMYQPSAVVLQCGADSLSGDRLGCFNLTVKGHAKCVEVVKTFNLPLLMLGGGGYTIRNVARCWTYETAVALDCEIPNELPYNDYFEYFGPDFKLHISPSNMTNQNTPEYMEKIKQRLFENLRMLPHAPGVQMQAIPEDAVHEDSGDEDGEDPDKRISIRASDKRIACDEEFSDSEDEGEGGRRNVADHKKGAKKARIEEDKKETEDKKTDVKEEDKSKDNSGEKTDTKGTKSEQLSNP
Procedure: as §2

cell cycle arrest = type: cell-based
human HDAC-3 = biological target: T2, human HDAC-3 (Homo sapiens, UniProt O15379); experiment: histone deacetylase enzyme assay, HDAC-3; type: biochemical
T2 construct: made in house; host or cells: insect cells (baculovirus expression system)
T2 sequence (O15379 whole entry): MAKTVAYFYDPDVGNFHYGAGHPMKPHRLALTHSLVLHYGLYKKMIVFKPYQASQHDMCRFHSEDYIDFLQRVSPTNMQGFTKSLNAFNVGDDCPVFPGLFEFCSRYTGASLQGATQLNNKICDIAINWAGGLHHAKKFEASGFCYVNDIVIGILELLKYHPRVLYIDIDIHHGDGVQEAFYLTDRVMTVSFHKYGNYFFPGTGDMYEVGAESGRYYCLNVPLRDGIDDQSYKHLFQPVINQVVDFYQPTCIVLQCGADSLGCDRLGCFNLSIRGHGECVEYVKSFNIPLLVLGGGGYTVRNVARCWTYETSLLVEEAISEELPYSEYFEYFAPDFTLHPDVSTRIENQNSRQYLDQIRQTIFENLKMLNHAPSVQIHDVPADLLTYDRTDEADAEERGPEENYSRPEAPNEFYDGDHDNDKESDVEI
Procedure: as §1, §2

[2] = test system: acetylated histone H-4 in T24 human bladder cancer cells; experiment: inhibition of HDAC activity in whole cells (acetylated histone H-4 Western); type: cell-based; details: 16 hours
Procedure: T24 human bladder cancer cells (ATCC, Manassas, Va.) growing in culture were incubated with test compounds for 16 hours. Histones were extracted from the cells by standard procedures (see e.g. Yoshida et al., supra) after the culture period. Twenty μg total core histone protein was loaded onto SDS/PAGE and transferred to nitrocellulose membranes, which were then reacted with polyclonal antibody specific for acetylated histone H-4 (Upstate Biotech Inc., Lake Placid, […].). Horse Radish Peroxidase conjugated secondary antibody was used at a dilution of 1:5000 to detect primary antibody binding. The secondary antibody binding was visualized by use of the Enhanced chemiluminescence (ECL) detection kit (Amersham-Pharmacia Biotech., Inc., Piscataway, N.J.). After exposure to film, acetylated H-4 signal was quantitated by densitometry.

human HDAC-4 = biological target: T3, human HDAC-4 (Homo sapiens, UniProt P56524); experiment: histone deacetylase enzyme assay, HDAC-4; type: biochemical
T3 construct: Flag; made in house; host or cells: human embryonic kidney 293 cells (calcium phosphate transfection)
T3 sequence (P56524 whole entry): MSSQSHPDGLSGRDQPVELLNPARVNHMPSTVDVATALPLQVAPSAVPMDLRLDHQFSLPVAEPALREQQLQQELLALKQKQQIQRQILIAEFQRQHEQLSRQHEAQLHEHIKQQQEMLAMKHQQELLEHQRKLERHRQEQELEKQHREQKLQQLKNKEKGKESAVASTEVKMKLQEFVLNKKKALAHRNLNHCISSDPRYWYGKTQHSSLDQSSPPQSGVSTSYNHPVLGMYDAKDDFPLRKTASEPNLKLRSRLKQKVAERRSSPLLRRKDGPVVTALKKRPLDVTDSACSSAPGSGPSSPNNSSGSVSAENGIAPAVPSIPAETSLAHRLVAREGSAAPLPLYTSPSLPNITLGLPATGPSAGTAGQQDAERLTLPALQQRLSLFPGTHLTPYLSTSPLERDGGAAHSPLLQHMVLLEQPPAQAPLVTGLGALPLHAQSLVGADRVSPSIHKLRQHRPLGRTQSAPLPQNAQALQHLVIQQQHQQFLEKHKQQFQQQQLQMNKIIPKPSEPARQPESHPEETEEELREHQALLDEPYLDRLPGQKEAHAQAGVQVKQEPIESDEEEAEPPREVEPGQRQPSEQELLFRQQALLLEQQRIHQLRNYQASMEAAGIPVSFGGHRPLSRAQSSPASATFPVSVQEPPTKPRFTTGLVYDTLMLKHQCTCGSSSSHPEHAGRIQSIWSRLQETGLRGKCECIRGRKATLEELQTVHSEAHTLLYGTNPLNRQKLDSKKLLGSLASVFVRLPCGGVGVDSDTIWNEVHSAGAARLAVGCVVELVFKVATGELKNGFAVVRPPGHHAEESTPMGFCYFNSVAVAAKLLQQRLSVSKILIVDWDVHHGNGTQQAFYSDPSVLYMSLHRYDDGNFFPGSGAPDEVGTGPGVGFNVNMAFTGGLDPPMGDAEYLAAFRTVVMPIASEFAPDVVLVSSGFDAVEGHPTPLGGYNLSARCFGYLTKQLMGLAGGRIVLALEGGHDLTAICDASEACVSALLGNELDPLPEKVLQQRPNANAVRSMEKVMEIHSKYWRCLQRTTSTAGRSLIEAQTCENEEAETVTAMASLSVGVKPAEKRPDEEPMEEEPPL
Procedure: Flag-tagged human HDAC-4 enzyme was produced in human embronic kidney 293 cells after transformation by the calcium phosphate precipitation method. Briefly, 293 cells were cultured in Dulbecco's Modified Eagle Medium (DMEM) containing 10% fetal bovine serum and antibiotics. Plasmid DNA encoding Flag-tagged human HDAC-4 was precipitated by ethanol and resuspend in sterile water. DNA-calcium precipitates, formed by mixing DNA, calcium choloride and 2×HEPES-buffered saline solution, were left on 293 cells for 12-16 hours. Cells were return to serum-contained DMEM medium and harvested at 48 hour post transfection for purification of Flag-tagged HDAC-4 enzyme.
as §1, §2

[3] = test system: human colon cancer cells (HCT116); experiment: tumor growth in a mouse model, colon; type: in vivo, BALB/c nude mice; details: 40 mg/kg body weight/day, i p; vs vehicle-treated mice
Procedure: Female BALB/c nude mice were obtained from Charles River Laboratories (Charles River, NY) and used at age 8-10 weeks. Human prostate tumor cells (DU145, 2×10^6) or human colon cancer cells (HCT116; 2×10^6) or small lung core A549 2×10^6 were injected subcutaneously in the animal's flank and allowed to form solid tumors. Tumor fragments were serially passaged a minimum of three times, then approximately 30 mg tumor fragments were implanted subcutaneously through a small surgical incision under general anaesthesia. Small molecule inhibitor administration by intraperotineal or oral administration was initiated when the tumors reached a volume of 100 mm^3. For intraperotineal administration, small molecule inhibitors of HDAC (40-50 mg/kg body weight/day) were dissolved in 100% DMSO and administered daily intraperitoneally by injection. For oral administration, small molecule inhibitors of HDAC (40-50 mg/kg body weight/days) were dissolved in a solution containing 65% polyethylene glycol 400 (PEG 400 (Sigma-Aldridge, Mississauga, Ontario, Calif., Catalogue No. P-3265), 5% ethanol, and 30% water. Tumor volumes were monitored twice weekly up to 20 days. Each experimental group contained at least 6-8 animals. Percentage inhibition was calculated using volume of tumor from vehicle-treated mice as controls.

| Compound | expression of HDAC-4 protein (human HDAC-4 protein) | expression of HDAC-4 mRNA (HDAC4 expression at RNA level) (HDAC-4 mRNA) | IC50 (human HDAC-6) [µM] | IC50 [1] [µM] | p21 induction (p21) [µM] | IC50 (HDAC 2) [µM] | cell cycle arrest EC (cell cycle arrest) [µM] | IC50 (human HDAC-3) [µM] | effective concentration for histone H4 acetylation [2] [µM] | IC50 (human HDAC-4) [µM] | other results |
| --- | --- | --- | --- | --- | --- | --- | --- | --- | --- | --- | --- |
| HDAC-4 AS1: 5′-GCTGCCTGCCGTGCCCACCC-3′, antisense to human HDAC4 5′-UTR, AB006626 (sugars from the 5' end m4 d12 m4, all phosphorothioate, methylation of C and T or U not given here) | can inbibit HDAC4 expression at protein level | can inbibit HDAC4 expression at RNA level in a dose-dependent manner | – | – | – | – | – | – | – | – | fold change, CDK4 (Human A549 cells; vs HDAC-4 mismatch oligo (MM2)): −3 fold; fold change, Egr-1 (Human A549 cells; vs HDAC-4 mismatch oligo (MM2)): 3 fold; fold change, GADD45 (Human A549 cells; vs HDAC-4 mismatch oligo (MM2)): 3 fold; fold change, GADD153 (Human A549 cells; vs HDAC-4 mismatch oligo (MM2)): 6 fold; fold change, IL-15 (Human A549 cells; vs HDAC-4 mismatch oligo (MM2)): 4 fold; fold change, IRF (Human A549 cells; vs HDAC-4 mismatch oligo (MM2)): 2 fold; fold change, Notch-4 (Human A549 cells; vs HDAC-4 mismatch oligo (MM2)): −3 fold; fold change, PLK (Human A549 cells; vs HDAC-4 mismatch oligo (MM2)): −4 fold; fold change, basic FGF (Human A549 cells; vs HDAC-4 mismatch oligo (MM2)): 2 fold; fold change, cyclin A2 (Human A549 cells; vs HDAC-4 mismatch oligo (MM2)): −3 fold; fold change, cyclin B1 (Human A549 cells; vs HDAC-4 mismatch oligo (MM2)): −3 fold; fold change, p21 (Human A549 cells; vs HDAC-4 mismatch oligo (MM2)): 4 fold; fold change, topo II α (Human A549 cells; vs HDAC-4 mismatch oligo (MM2)): −5 fold; number of genes with altered expression (Human A549 cells; out of 588 genes): 39 genes |
| Nc1ccccc1NC(=O)CCCCCCC(=O)c1ccc(-c2ccccc2)nc1 [MG 385 9] | – | – | > 50 | 5 | 5 | 8 | 3 | 18 | 5 | 13 | – |
| HDAC4 AS2: 5′-TACAGTCCATGCAACCTCCA-3′, antisense to human HDAC4 3′-UTR, AB006626 (sugars from the 5' end m4 d12 m4, all phosphorothioate, methylation of C and T or U not given here) | can inbibit HDAC4 expression at protein level | can inbibit HDAC4 expression at RNA level in a dose-dependent manner | – | – | – | – | – | – | – | – | – |
| Nc1ccccc1NC(=O)CCCCCCC(=O)c1ccc(-c2ccccc2)cc1 [MG 365 0] | – | – | > 50 | 5 | 10 | 4 | 9 | > 20 | 10 | 23 | % inh. of tumor formation in vivo, colon [3]: 53 (40, i p) % |
